{"source": "patent US5258406A", "about": "“Sulfonimidamides” (priority 1992, dated 1993)", "format_in_all_cases": "in vivo", "key": {"6C3HED lymphosarcoma": {"system": "6C3HED lymphosarcoma", "assay": "animal or person"}, "HC1": {"system": "HC1", "experimental": "(§1) The compounds were tested in C3H mice bearing a 6C3HED lymphosarcoma, also known as the Gardner lymphosarcoma (GLS), and in a variety of human tumor xenografts in CD1 nu/nu mice, including CX-1, LX-1, HXGC3, and VRC5. The 6C3HED lymphosarcoma was obtained from the Division of Cancer Treatment, National […] Institute, Tumor Bank, maintained at E. G. and G. Mason Research (Worcester, Mass.). The CX-1 human colon carcinoma and the LX-1 human lung carcinoma xenografts were obtained from the National Cancer Institute. The HXGC3 and VRC5 human colon xenografts were obtained from Dr. P. J. Houghton, St. Jude Children's Hospital in Memphis (see Br. J. Cancer, 37, 213 (1978)). First passage tumor was stored in liquid nitrogen using standard techniques. The transplanted tumor was reestablished from the Tumor Bank every six months or as needed. The tumor was maintained by serial passage twice weekly in C3H mice.\n(§2) In the procedure the tumor was removed from passage animals and minced into 1- to 3-mm square fragments using sterile techniques. Tumor pieces were checked for sterility using both Antibiotic Medium 1 and Brain Heart Infusion (Difco, Detroit, Mich.). Recipient mice were shaved and tumor pieces were implanted subcutaneously in the auxiliary region by trocar. Drug therapy on the appropriate schedule was initiated on the day after tumor implant for 6C3HED and after a seven (7) day delay for xenografts (or other delay as noted in Table 2). The compound being tested was mixed with 2.5% Emulphor EL620 from GAF Corporation (1:40 dilution in saline). Food and water were provided ad libitium. The drug was administered orally in 0.5 ml of 2.5% Emulphor (unless otherwise indicated). The tumor was measured the day after treatment ended with two dimensional measurements (width and length) of the tumor taken using automated digital calipers interfaced to a microcomputer. Approximate weight for the tumor was calculated using the following formula [Worzalla, J. F., et al., Invest. New Drugs, 8, 241 (1990], (tumor weight in mg)=(width in mm)^2 ×(length in mm)/2.\n(§3) At least one control group of an equal number of mice was treated with the same volume of 2.5% Emulphor only. The percent inhibition was determined by subtracting the ratio of the mean tumor size of the test group relative to the control group from one and multiplying the result times 100.\n(§4) The results of several experiments in mice bearing a 6C3HED lymphosarcoma (or other tumor where indicated) when the indicated compounds were administered are provided in Table 2. In Table 2, column 1 gives the Example number of the compound used, column 2 lists the dose level in mg/kg, column 3 provides the percent inhibition of tumor growth, column 4 gives the number of mice which died relative to the total number of animals in the group, column 5 gives the method of administration of the compound, and column 6 gives the dosage schedule. The protocol used with other tumors was the same as with the 6C3HED lymphosarcoma."}, "LX1": {"system": "LX1", "experimental": "as §1, §2, §3, §4"}, "[1]": {"details": "oral, 500 mg/kg, BIDX 14, from day 14 after implant"}, "[2]": {"details": "oral, 3 mg/kg, BIDX 14, from day 7 after implant"}}, "note": "Read-outs that look alike come from different tables or passages of the source.", "data": [{"compound": "Cc1ccc(S(=N)(=O)NC(=O)Nc2ccc(Cl)cc2)cc1", "note": "(centres unmarked) [Example 2, N-[[(4-chlorophenyl)amino]carbonyl]-4-methylbenzenesulfonimidamide]", "values": [{"measurement": "Tox/Tot (mice which died / total)", "setting": "6C3HED lymphosarcoma; IP, 150 mg/kg, DX 8", "result": "1/10"}, {"measurement": "Tox/Tot (mice which died / total)", "setting": "6C3HED lymphosarcoma; IP, 300 mg/kg, DX 8", "result": "6/10"}, {"measurement": "Tox/Tot (mice which died / total)", "setting": "6C3HED lymphosarcoma; IV, 12.5 mg/kg, DX 8", "result": "0/10"}, {"measurement": "Tox/Tot (mice which died / total)", "setting": "6C3HED lymphosarcoma; IV, 25 mg/kg, DX 8", "result": "1/10"}, {"measurement": "inhibition in vivo at 150 mg/kg", "setting": "6C3HED lymphosarcoma; Mus musculus, 6C3HED, ip, read-out: % inhibition of tumor growth, IP, 150 mg/kg, DX 8", "result": 92, "unit": "%"}, {"measurement": "inhibition in vivo at 300 mg/kg", "setting": "6C3HED lymphosarcoma; Mus musculus, 6C3HED, ip, read-out: % inhibition of tumor growth, IP, 300 mg/kg, DX 8", "result": 98, "unit": "%"}, {"measurement": "inhibition in vivo at 12.5 mg/kg", "setting": "6C3HED lymphosarcoma; Mus musculus, 6C3HED, iv, read-out: % inhibition of tumor growth, IV, 12.5 mg/kg, DX 8", "result": 36, "unit": "%"}, {"measurement": "inhibition in vivo at 25 mg/kg", "setting": "6C3HED lymphosarcoma; Mus musculus, 6C3HED, iv, read-out: % inhibition of tumor growth, IV, 25 mg/kg, DX 8", "result": 52, "unit": "%"}, {"measurement": "inhibition in vivo at 50 mg/kg", "setting": "6C3HED lymphosarcoma; Mus musculus, 6C3HED, po, read-out: % inhibition of tumor growth, oral, 50 mg/kg, BIDX 8", "result": 95, "unit": "%"}, {"measurement": "inhibition in vivo at 75 mg/kg", "setting": "6C3HED lymphosarcoma; Mus musculus, 6C3HED, po, read-out: % inhibition of tumor growth, oral, 75 mg/kg, DX 8", "result": 76, "unit": "%"}, {"measurement": "inhibition in vivo at 100 mg/kg", "setting": "6C3HED lymphosarcoma; Mus musculus, 6C3HED, po, read-out: % inhibition of tumor growth, oral, 100 mg/kg, BIDX 8", "result": 96, "unit": "%"}, {"measurement": "inhibition in vivo at 150 mg/kg", "setting": "6C3HED lymphosarcoma; Mus musculus, 6C3HED, po, read-out: % inhibition of tumor growth, oral, 150 mg/kg, DX 8", "result": 74, "unit": "%"}, {"measurement": "inhibition in vivo at 200 mg/kg", "setting": "6C3HED lymphosarcoma; Mus musculus, 6C3HED, po, read-out: % inhibition of tumor growth, oral, 200 mg/kg, BIDX 8", "result": 98, "unit": "%"}, {"measurement": "inhibition in vivo at 300 mg/kg", "setting": "6C3HED lymphosarcoma; Mus musculus, 6C3HED, po, read-out: % inhibition of tumor growth, oral, 300 mg/kg, DX 8", "result": 82, "unit": "%"}, {"measurement": "inhibition in vivo at 400 mg/kg", "setting": "6C3HED lymphosarcoma; Mus musculus, 6C3HED, po, read-out: % inhibition of tumor growth, oral, 400 mg/kg, BIDX 8", "result": 99, "unit": "%"}, {"measurement": "inhibition in vivo at 600 mg/kg", "setting": "6C3HED lymphosarcoma; Mus musculus, 6C3HED, po, read-out: % inhibition of tumor growth, oral, 600 mg/kg, DX 8", "result": 99, "unit": "%"}, {"measurement": "inhibition in vivo at 800 mg/kg", "setting": "6C3HED lymphosarcoma; Mus musculus, 6C3HED, po, read-out: % inhibition of tumor growth, oral, 800 mg/kg, BIDX 8", "result": 99, "unit": "%"}, {"measurement": "inhibition in vivo at 1200 mg/kg", "setting": "6C3HED lymphosarcoma; Mus musculus, 6C3HED, po, read-out: % inhibition of tumor growth, oral, 1200 mg/kg, DX 8", "result": 100, "unit": "%"}, {"measurement": "Tox/Tot (mice which died / total)", "setting": "6C3HED lymphosarcoma; oral, 50 mg/kg, BIDX 8", "result": "0/10"}, {"measurement": "Tox/Tot (mice which died / total)", "setting": "6C3HED lymphosarcoma; oral, 75 mg/kg, DX 8", "result": "0/10"}, {"measurement": "Tox/Tot (mice which died / total)", "setting": "6C3HED lymphosarcoma; oral, 100 mg/kg, BIDX 8", "result": "0/10"}, {"measurement": "% inhibition of tumor growth", "setting": "6C3HED lymphosarcoma; oral, 150 mg/kg, DX 8", "result": 93, "unit": "%"}, {"measurement": "Tox/Tot (mice which died / total)", "setting": "6C3HED lymphosarcoma; oral, 150 mg/kg, DX 8", "result": "0/10"}, {"measurement": "Tox/Tot (mice which died / total)", "setting": "6C3HED lymphosarcoma; oral, 200 mg/kg, BIDX 8", "result": "0/10"}, {"measurement": "% inhibition of tumor growth", "setting": "6C3HED lymphosarcoma; oral, 300 mg/kg, DX 8", "result": 95, "unit": "%"}, {"measurement": "Tox/Tot (mice which died / total)", "setting": "6C3HED lymphosarcoma; oral, 300 mg/kg, DX 8", "result": "0/10"}, {"measurement": "Tox/Tot (mice which died / total)", "setting": "6C3HED lymphosarcoma; oral, 400 mg/kg, BIDX 8", "result": "0/10"}, {"measurement": "Tox/Tot (mice which died / total)", "setting": "6C3HED lymphosarcoma; oral, 600 mg/kg, DX 8", "result": "0/10"}, {"measurement": "Tox/Tot (mice which died / total)", "setting": "6C3HED lymphosarcoma; oral, 800 mg/kg, BIDX 8", "result": "1/10"}, {"measurement": "Tox/Tot (mice which died / total)", "setting": "6C3HED lymphosarcoma; oral, 1200 mg/kg, DX 8", "result": "0/10"}, {"measurement": "Tox/Tot (mice which died / total)", "setting": "HC1; oral, 250 mg/kg, BIDX 14, from day 14 after implant", "result": "2/9"}, {"measurement": "% inhibition of tumor growth", "setting": "HC1; [1]", "result": "TOX"}, {"measurement": "Tox/Tot (mice which died / total)", "setting": "HC1; [1]", "result": "9/9"}, {"measurement": "% inhibition of tumor growth", "setting": "HC1; po, 250 mg/kg, 336 h", "result": 68, "unit": "%"}, {"measurement": "% inhibition of tumor growth", "setting": "LX1; [2]", "result": 24, "unit": "%"}, {"measurement": "Tox/Tot (mice which died / total)", "setting": "LX1; [2]", "result": "0/10"}, {"measurement": "Tox/Tot (mice which died / total)", "setting": "LX1; oral, 10 mg/kg, BIDX 14, from day 7 after implant", "result": "0/10"}, {"measurement": "Tox/Tot (mice which died / total)", "setting": "LX1; oral, 30 mg/kg, BIDX 14, from day 7 after implant", "result": "0/10"}, {"measurement": "Tox/Tot (mice which died / total)", "setting": "LX1; oral, 100 mg/kg, BIDX 14, from day 7 after implant", "result": "0/10"}, {"measurement": "Tox/Tot (mice which died / total)", "setting": "LX1; oral, 300 mg/kg, BIDX 14, from day 7 after implant", "result": "5/10"}, {"measurement": "% inhibition of tumor growth", "setting": "LX1; po, 10 mg/kg, 168 h", "result": 18, "unit": "%"}, {"measurement": "% inhibition of tumor growth", "setting": "LX1; po, 30 mg/kg, 168 h", "result": 28, "unit": "%"}, {"measurement": "% inhibition of tumor growth", "setting": "LX1; po, 100 mg/kg, 168 h", "result": 51, "unit": "%"}, {"measurement": "% inhibition of tumor growth", "setting": "LX1; po, 300 mg/kg, 168 h", "result": 66, "unit": "%"}]}]}
